# Assay results taken from patent publication US20260166159A1, “KRAS G12D DEGRADATION AGENT, AND PREPARATION METHOD AND USE THEREFOR” (LEADINGTAC PHARMACEUTICAL (SHAOXING) CO., LTD., priority 2022, published 2026).
# What was measured:
# Type in all cases: cell-based
# [1] = tested on: KRAS G12D mutant human pancreatic cancer cell HPAC; experiment: 3D cell proliferation inhibition assay, HPAC; conditions: 168 h, 7 days, CTG
# Text: (§1) The inhibitory effects of the compounds on 3D cell proliferation were investigated on KRAS G12D mutant human lung cancer cell A427, KRAS G12D mutant human gastric cancer cell AGS, KRAS G12D mutant human metastatic pancreatic cancer cell AsPc-1, KRAS G12D mutant human pancreatic cancer cell Panc 04.03, KRAS G12D mutant human pancreatic cancer cell HPAC, KRAS G12V mutant human lung squamous cell carcinoma cell SW900, and KRAS WT human gastric cancer cell MKN1. The specific procedures were as follows:
# (§2) 10 μL of each compound solution diluted in a gradient was added to corresponding wells of a 96-well low-adsorption microplate (PerkinElmer), so that the final concentrations of the test compounds in the reaction system were in a range of 10000-0.026 nM. The final concentration of DMSO was 0.2%. Then 90 µL of cells were correspondingly seeded into each well to achieve a cell density of 5×10^2 cells/well (the cell density of SW900 was 5×10^1 cells/well, and the cell density of MKN1 was 1×10^3 cells/well). In addition to test wells for the test compounds, both a DMSO control well and a medium control well were set, with the DMSO control well containing DMSO and cells and the medium well containing only a medium. After the sample loading, the 96-well low-adsorption microplate was incubated in an incubator at 37° C. with 5% carbon dioxide for 7 days. After 7 days, the microplate was taken out, and 100 μL of CTG reagent (Promega) was added to each well. The plate was incubated at room temperature for 60 min and read on a microplate reader EnVision by the chemiluminescence program. The inhibition rates of the compounds at each concentration were calculated using the formula for the percentage inhibition of cell proliferation: inhibition rate %=(mean value of DMSO control group−single concentration reading value of compound)/(mean value of DMSO control group−mean value of medium control group)×100. Then non-linear curve fittings for logarithmic concentration-inhibition rate were performed by GraphPad Prism 8, and the IC50 values of the compounds were obtained (Table 5).
# KRAS-G12D = target: T1, KRAS-G12D (Homo sapiens, UniProt P01116, G12D); experiment: KRAS-G12D degradation assay (Western Blot), AsPc-1 cells; conditions: for DC50: 24 h; for Dmax: ASPC1, 24 h
# T1 construct: endogenous in cells; host or cells: A-427 (ATCC), AGS, AsPc-1, Panc 04.03
# T1 sequence (P01116 1-188 isoform P01116-2 G12D): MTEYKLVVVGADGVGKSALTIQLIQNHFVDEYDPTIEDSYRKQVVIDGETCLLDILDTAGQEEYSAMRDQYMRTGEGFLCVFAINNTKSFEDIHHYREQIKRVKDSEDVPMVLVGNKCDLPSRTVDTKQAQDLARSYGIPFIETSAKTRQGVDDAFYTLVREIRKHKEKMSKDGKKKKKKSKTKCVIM
# Procedure: The degradation effects of the compounds on KRAS-G12D were investigated on KRAS G12D mutant human lung cancer cell A-427 (ATCC), KRAS G12D mutant human gastric cancer cell AGS, KRAS G12D mutant human metastatic pancreatic cancer cell AsPc-1, and KRAS G12D mutant human pancreatic adenocarcinoma cell Panc 04.03. The specific procedures were as follows: 0.95 mL of cells were seeded into each well of a 24-well cell culture plate to achieve a cell density of 5×10^5 cells/well; and the cell plate was incubated in an incubator at 37° C. with 5% CO2 overnight. Then 50 μL of the compound solution after dilution was added to each of the wells with the corresponding cells, so that the final concentration of the compound was in a range of 0.03-3000 nM. The final concentration of DMSO was 0.25%. After the compounds were added, the cell plate was incubated in the incubator at 37° C. with 5% CO2 for 24 h. The culture medium in the 24-well cell culture plate was removed, and the plate was washed twice with 1×PBS (KeyGEN). 120 μL of RIPA (strong) lysis buffer (Beyotime) supplemented with 1 mM phenylmethylsulfonyl fluoride, a protease inhibitor mixture (Beyotime), and a protease phosphatase inhibitor mixture (Beyotime) was added to lyse adherent A-427 cells at the bottom of the cell culture plate. After the plate was left to stand on ice for 30 min, the protein lysate in each well was transferred to a 1.5 mL centrifuge tube and centrifuged at 15000 g for 20 min at 4° C. The cell lysate supernatants after centrifugation were cryopreserved in a refrigerator at −80° C. for later use.
# After the samples of the cell lysate supernatants that had been prepared were thawed from the refrigerator at −80° C., the total protein concentrations of the cell lysates were determined using a BCA protein quantification kit (Tiangen). The total protein concentrations of the samples were then adjusted to 0.5 μg/μL with PBS and 5×SDS-PAGE protein loading buffer (Beyotime), and the samples were incubated in a water bath at 100° C. for 15 min. The samples were then incubated in an ice bath for 5 min and centrifuged at 14000 g for 1 min at 4° C., and the supernatants were mixed well as loading samples for the Western Blot assay. The samples were loaded into wells of a 10% precast gel (KeyGEN) with a loading volume of 10 μL (total protein: 5 μg), a sufficient Tris-MOPS-SDS running buffer (Adamas) was added, and then electrophoresis was performed at a constant voltage of 120 V for 55 min. After the electrophoresis, the proteins on the gel were transferred to PVDF membranes at a constant current of 250 mA for 55 min. After the membrane transfer, the PVDF membranes were incubated in 1× Quick Block blocking buffer (Beyotime) at room temperature for 30 min. After the blocking, the PVDF membranes were separately incubated at 4° C. overnight with the KRAS antibody (Abcam) diluted in a ratio of 1:1000 and the […] antibody (Abcam) diluted in a ratio of 1:2000 in 5% BSA as the diluent, and then washed with 1×TBST buffer (2.4 g of Tris, 8.8 g of NaCl, 1.5 mL of Tween 20, with pH adjusted to 7.4, with the volume brought to 1 L) 3 times for 10 min/time. The membranes were incubated with a secondary antibody (Abcam) diluted in 5% BSA at room temperature for 2 h, and then washed with 1×TBST buffer 3 times for 10 min/time. Finally, the membranes were incubated with Clarity Western ECL Substrate (BIO-RAD) for 5 min for luminescence and color development, and a ChemiScope 6200 Touch chemiluminescence imaging system (Clinx) was used for color development and protein mapping. Gray value analysis of the protein maps was performed using the chemiluminescence analysis software (Clinx). The gray correction value for each sample was calculated using the formula: gray correction value=(gray value of target protein/gray value of corresponding internal reference)×10^3. Then degradation rates were calculated by comparison with the gray correction value of the control group. […]
# [2] = tested on: KRAS G12D mutant human pancreatic cancer cell Panc 04.03; experiment: 3D cell proliferation inhibition assay, Panc 04.03; conditions: 168 h, Panc 04.03, 7 days, CTG, numeric values
# Text: as §1, §2
# [3] = tested on: KRAS G12D mutant human gastric cancer cell AGS; experiment: 3D cell proliferation inhibition assay, AGS; conditions: 168 h, 7 days, CTG, numeric values
# Procedure, shortened: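 3D growth, low-adsorption plate; 5×10^2 cells/well; cpd 10000–0.026 nM final, 0.2% DMSO; 7 d, 37 °C/5% CO2. CTG luminescence, 60 min RT. % inhibition vs DMSO (cells) and medium blanks; IC50 by nonlinear fit.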
# [4] = tested on: KRAS G12D mutant human metastatic pancreatic cancer cell AsPc-1; experiment: 3D cell proliferation inhibition assay, AsPc-1; conditions: ASPC1, 168 h, AsPc-1, 7 days, CTG, numeric values
# Text: as §1, §2
SMILES,IC50 [1],DC50 (KRAS-G12D),Dmax (KRAS-G12D),IC50 [2],IC50 [3],IC50 [4]
"C#Cc1c(F)ccc2cc(O)cc(-c3ncc4c(N5CC6CCC(C5)N6)nc(OC[C@H](C)CN5CCN(CC6CCC7(CC6)CCN(C(=O)c6ccc(C)c(N8CCC(=O)NC8=O)c6)CC7)CC5)nc4c3F)c12 [Example 100, 1-(5-(9-((4-((R)-3-((4-(3,8-diazabicyclo[3.2.1]octan-3-yl)-7-(8-ethynyl-7-fluoro-3-hydroxynaphthalen-1-yl)-8-fluoropyrido[4,3-d]pyrimidin-2-yl)oxy)-2-methylpropyl)piperazin-1-yl)methyl)-3-azaspiro[5.5]undecane-3-carbonyl)-2-methylphenyl)dihydropyrimidine-2,4(1H,3H)-dione]",2.43 nM,2.54 nM,100%,23.8 nM,3.63 nM,2.02 nM
"C#Cc1c(F)ccc2cc(O)cc(-c3ncc4c(N5CC6CCC(C5)N6)nc(OC[C@H](C)CN5CCN(CC6CCC7(CC6)CCN(C(=O)c6ccc(Cl)c(N8CCC(=O)NC8=O)c6)CC7)CC5)nc4c3F)c12 [Example 102, 1-(5-(9-((4-((R)-3-((4-(3,8-diazabicyclo[3.2.1]octan-3-yl)-7-(8-ethynyl-7-fluoro-3-hydroxynaphthalen-1-yl)-8-fluoropyrido[4,3-d]pyrimidin-2-yl)oxy)-2-methylpropyl)piperazin-1-yl)methyl)-3-azaspiro[5.5]undecane-3-carbonyl)-2-chlorophenyl)dihydropyrimidine-2,4(1H,3H)-dione]",13.5 nM,8.93 nM,100%,15.2 nM,6.56 nM,3.69 nM
"C#Cc1c(F)ccc2cc(O)cc(-c3ncc4c(N5CC6CCC(C5)N6)nc(OCC5(CN6CCN(CC7CCC8(CC7)CCN(C(=O)c7cc(N9CCC(=O)NC9=O)c(C)cc7F)CC8)CC6)CC5)nc4c3F)c12 [Example 104, 1-(5-(9-((4-((1-(((4-(3,8-diazabicyclo[3.2.1]octan-3-yl)-7-(8-ethynyl-7-fluoro-3-hydroxynaphthalen-1-yl)-8-fluoropyrido[4,3-d]pyrimidin-2-yl)oxy)methyl)cyclopropyl)methyl)piperazin-1-yl)methyl)-3-azaspiro[5.5]undecane-3-carbonyl)-4-fluoro-2-methylphenyl)dihydropyrimidine-2,4(1H,3H)-dione]",5.32 nM,–,–,31.3 nM,2.49 nM,1.83 nM
"C#Cc1c(F)ccc2cc(O)cc(-c3ncc4c(N5CC6CCC(C5)N6)nc(OCC5(CN6CCN(CC7CCC8(CCN(C(=O)c9ccc(C)c(N%10CCC(=O)NC%10=O)c9)CC8)CO7)CC6)CC5)nc4c3F)c12 (stereo not shown) [Example 106, 1-(5-(3-((4-((1-(((4-(3,8-diazabicyclo[3.2.1]octan-3-yl)-7-(8-ethynyl-7-fluoro-3-hydroxynaphthalen-1-yl)-8-fluoropyrido[4,3-d]pyrimidin-2-yl)oxy)methyl)cyclopropyl)methyl)piperazin-1-yl)methyl)-2-oxa-9-azaspiro[5.5]undecane-9-carbonyl)-2-methylphenyl)dihydropyrimidine-2,4(1H,3H)-dione]",152 nM,10.5 nM,99.5%,63.5 nM,13.4 nM,30.8 nM
"C#Cc1c(F)ccc2cc(O)cc(-c3ncc4c(N5CC6CCC(C5)N6)nc(OC[C@H](C)CN5CCN(CC6CCC7(CC6)CCN(C(=O)c6ccc(CC)c(N8CCC(=O)NC8=O)c6)CC7)CC5)nc4c3F)c12 [Example 110, 1-(5-(9-((4-((R)-3-((4-(3,8-diazabicyclo[3.2.1]octan-3-yl)-7-(8-ethynyl-7-fluoro-3-hydroxynaphthalen-1-yl)-8-fluoropyrido[4,3-d]pyrimidin-2-yl)oxy)-2-methylpropyl)piperazin-1-yl)methyl)-3-azaspiro[5.5]undecane-3-carbonyl)-2-ethylphenyl)dihydropyrimidine-2,4(1H,3H)-dione]",18.6 nM,2.56 nM,99.2%,12.5 nM,5.69 nM,4.47 nM
"C#Cc1c(F)ccc2cc(O)cc(-c3ncc4c(N5CC6CCC(C5)N6)nc(OCC5(CN6CCN(CC7CCC8(CCN(C(=O)c9ccc(C)c(N%10CCC(=O)NC%10=O)c9)CC8)OC7)CC6)CC5)nc4c3F)c12 (stereo not shown) [Example 151, 1-(5-(3-((4-((1-(((4-(3,8-diazabicyclo[3.2.1]octan-3-yl)-7-(8-ethynyl-7-fluoro-3-hydroxynaphthalen-1-yl)-8-fluoropyrido[4,3-d]pyrimidin-2-yl)oxy)methyl)cyclopropyl)methyl)piperazin-1-yl)methyl)-1-oxa-9-azaspiro[5.5]undecane-9-carbonyl)-2-methylphenyl)dihydropyrimidine-2,4(1H,3H)-dione]",6.92 nM,–,–,23.1 nM,6.82 nM,3.86 nM
"C#Cc1c(F)ccc2cc(O)cc(-c3ccc4c(N5CC6CCC(C5)N6)nc(OC[C@H](C)CN5CCN(CC6CCC7(CC6)CCN(C(=O)c6ccc(C)c(N8CCC(=O)NC8=O)c6)CC7)CC5)nc4c3F)c12 [Example 251, 1-(5-(9-((4-((R)-3-((4-(3,8-diazabicyclo[3.2.1]octan-3-yl)-7-(8-ethynyl-7-fluoro-3-hydroxynaphthalen-1-yl)-8-fluoroquinazolin-2-yl)oxy)-2-methylpropyl)piperazin-1-yl)methyl)-3-azaspiro[5.5]undecane-3-carbonyl)-2-methylphenyl)dihydropyrimidine-2,4(1H,3H)-dione]",40.2 nM,8.72 nM,99.1%,22.4 nM,–,14.3 nM
